# Assay results taken from patent US4719220A, “15(R)-5-fluoroprostacyclins, pharmaceutical compositions and anti-thrombotic methods of use thereof” (G. D. Searle & Co., priority 1986, dated 1988).
# Counter-ions that a name gives are not always drawn.
# How the values were obtained:
# [1] = system: mean blood pressure / platelet aggregation; settings: sodium salts, cited from earlier work; for ratio of blood pressure lowering activity and platelet aggregation inhibiting activity: dose for 20% lowering of mean blood pressure / minimum concentration for 50% inhibition of aggregation, PGI2 = 1; for platelet aggregation inhibition in comparison with blood pressure lowering, compared to PGI2: EP Publication No. 0054795
# [2] = system: ADP-induced platelet aggregation; experiment: In vitro ADP aggregation (platelet-rich plasma); assay type: cell-based; settings: Table I; rat platelet-rich plasma, ADP 1-2 uM
# Procedure: Rationale: The changes in optical density resulting from ADP-stimulation of platelet-rich plasma is used to identify compounds which inhibit or reverse platelet activation.
# 1. Platelet-rich plasma (PRP) is obtained from citrated whole rat blood.
# 2. Compound solutions are prepared at the initial screening dose of 1×1O^-4 M.
# 3. The prostacyclin (PGI2) standard is prepared in 0.lM NaOH-glycine (pH 10.0) over a range of 10^-9 -10^-8 M.
# 4. ADP in saline is added to PRP over a range of 1-2 uM to determine a concentration eliciting maximum aggregation within one minute.
# 5. PRP containing standard or test compound is preincubated for 1 minute and then stimulated with ADP. Vehicle controls are tested simultaneously.
# 6. The aggregation wave generated is monitored until the reversal phase is observed.
# 7. Platelet aggregation is quantified as the units of depth between the baseline and maximum depth.
# 8. Dose-response curves are generated for percent inhibition of ADP-induced platelet aggregation.
# 9. In vitro activity of the compounds screened is assessed by comparison of IC50 (M) with that of PGI2.
# mean arterial pressure [3] = experiment: Hexamethonium Rat hypotensive activity (spontaneously hypertensive rats); assay type: in vivo; settings: iv bolus
# Procedure: Hexamethonium Rat (Duration)
# Spontaneously hypertensive rats (300-400 g.) are anesthetized with 100 mg/kg barbital/25 mg/kg pentobarbital ip. The jugular vein and carotid artery are then cannulated with polyethylene-50 tubing (for drug administration and blood pressure measurement, respectively). A tracheotomy tube is inserted and animals breathe 100% O2 spontaneously. Body temperature is maintained at 37° C. with a thermister probe and heat lamp. Rats are then dosed with 1 mg/kg hexamethonium, iv bolus. After a 10-minute stabilization period, animals are dosed with compound. All compounds are dissolved in either glycine buffer or saline and given in a volume of 1 ml kg. Approximate ED50 doses are administered iv bolus and mean arterial pressure (MAP) is recorded every 30 seconds for 5 minutes, then every minute for a 15-20 minute period or until pressure returns to baseline. Changes in MAP (compared to pre-treatment values) are analyzed with a paired t-test.
# [4] = system: ADP-Thrombocytopenia (platelet numbers); experiment: In vivo ADP-thrombocytopenia; design: species or system rat; settings: rats; for In vivo (ADP-Thrombocytopenia) ED50: Table I, infusion right jugular vein five minutes, ADP 0.5 mg/kg; for Anti-Aggregatory in vivo (ADP-Thrombocytopenia) ED50: Table II
# Procedure: In vivo ADP-thrombocytopenia
# Vehicle/compound in saline is infused for five minutes in the right jugular vein of rats (400-500 g) anesthetized with pentobarbital. Adenosine diphosphate (0.5 mg/kg) in saline is immediately infused for one minute in the left jugular vein. Blood samples are drawn (1:10 into 3.8% citrate) and platelets counted on a Coulter counter and platelet numbers in treated animals are compared to controls. The ED50 (effectiVe dose in 50% of treated animals--μg/kg/minute) for compound activity is calculated from linear regression.
# mean arterial pressure [5] = experiment: Hypotensive Activity in Normotensive Rats; assay type: in vivo, normotensive Sprague-Dawley rats; settings: Table II; for ED (25 mm Hg): Rattus norvegicus, iv, bolus i.v., dose lowering pressure 25 mm Hg, read-out: Blood Pressure ED25; for Therapeutic Index (Blood Pressure ED25 / Anti-Aggregatory): ED25 blood pressure over ED50 ADP-thrombocytopenia
# Procedure: Hypotensive Activity in Normotensive Rats.
# Normotensive Sprague-Dawley rats (weighing 400 to 500 g) are anesthetized wrth 100 mg/kg barbital/25 mg/kg pentobarbital intraperitoneally. The jugular vein and carotid artery are then cannulated with polyethylene-50 tubing (for drug administration and blood pressure measurement, respectively). A tracheotomy tube is inserted and animals breath 100% O2 spontaneously.
# Also, body temperature is maintained at 37° C. with a thermister probe and heat lamp. After a 10 to 15 minute stabilization period, bolus i.v. injections of compound are given and responses (decrease in mean arterial pressure in mm Hg) are recorded. A linear regression analysis is then performed on the data to yield the following information:
# EDO --threshold dose or dose at which an effect is first observed.
# ED50 --the dose which causes 50% of the maximal response slope of the regression line in mm Hg.
# When blood pressure lowering effects are minimal, an ED50 cannot be determined and, instead, an ED25 (dose which lowers the maximal pressure 25 mm Hg) is calculated.
# blood pressure = settings: U.S. Pat. No. 4,178,367; cited from earlier work
structure (smiles),measurement,setting,value
"CCCCCC(O)C=CC1C(O)CC2OC(=C(Cl)CCCC(=O)[O-])CC21.[Na+] (stereo not drawn) [5-chloro derivative, 5-chloro-PGI2 sodium salt]",ratio of blood pressure lowering activity and platelet aggregation inhibiting activity,[1],4
same,"platelet aggregation inhibition in comparison with blood pressure lowering, compared to PGI2",[1],stronger activities with respect to the inhibition of platelet aggregation in comparison with their blood pressure lowering activities compared to PGI2
"CCCCCC(O)C=CC1C(O)CC2OC(=CCCCC(=O)[O-])C(F)C21.[Na+] (stereo not drawn) [7-fluoro derivative, 7-fluoro-PGI2 sodium salt]",ratio of blood pressure lowering activity and platelet aggregation inhibiting activity,[1],32
same,"platelet aggregation inhibition in comparison with blood pressure lowering, compared to PGI2",[1],stronger activities with respect to the inhibition of platelet aggregation in comparison with their blood pressure lowering activities compared to PGI2
"O=C(O)CCC/C(F)=C1/C[C@@H]2[C@@H](/C=C/[C@@H](O)C3CCCC3)[C@H](O)C[C@@H]2O1 [(5F,15S)]",IC50,[2],11 nM
same,"Blood Pressure Hexamethonium Rat, Blood Pressure/dose (decrease)",mean arterial pressure [3]; 10 μg/kg,-104 mm/Hg
same,In vivo (ADP-Thrombocytopenia) ED50,[4],0.87 µg/kg/min
"O=C(O)CCC[C@@H](F)C1=C[C@@H]2[C@@H](/C=C/[C@H](O)C3CCCC3)[C@H](O)C[C@@H]2O1 [(5R,15R), 15-cyclopentyl-6,9α-Epoxy-5R-fluoro-11α,15R-dihydroxy-16,17,18,19,20-pentanorprosta-6,13E-dien-1-oic acid, sodium salt]",ED (25 mm Hg),mean arterial pressure [5],0.501 mg/kg
same,Therapeutic Index (Blood Pressure ED25 / Anti-Aggregatory),mean arterial pressure [5],217.8
same,IC50,[2],600 nM
same,In vivo (ADP-Thrombocytopenia) ED50,[4],2.3 µg/kg/min
same,Anti-Aggregatory in vivo (ADP-Thrombocytopenia) ED50,[4],2.3 µg/kg/min
"O=C(O)CCC[C@@H](F)C1=C[C@@H]2[C@@H](/C=C/[C@@H](O)C3CCCC3)[C@H](O)C[C@@H]2O1 [(5R,15S)]",ED (25 mm Hg),mean arterial pressure [5],0.0026 mg/kg
same,Therapeutic Index (Blood Pressure ED25 / Anti-Aggregatory),mean arterial pressure [5],0.87
same,IC50,[2],190 nM
same,"Blood Pressure Hexamethonium Rat, Blood Pressure/dose (decrease)",mean arterial pressure [3]; 10 μg/kg,-47 mm/Hg
same,In vivo (ADP-Thrombocytopenia) ED50,[4],3.0 µg/kg/min
same,Anti-Aggregatory in vivo (ADP-Thrombocytopenia) ED50,[4],3.0 µg/kg/min
"O=C(O)CCC[C@H](F)C1=C[C@@H]2[C@@H](/C=C/[C@H](O)C3CCCC3)[C@H](O)C[C@@H]2O1 [(5S,15R), 15-cyclopentyl-6,9α-Epoxy-5S-fluoro-11α, 15R-dihydroxy-16,17,18,19,20-pentanorprosta-6,13E-dien-1-oic acid, sodium salt]",IC50,[2],8600 nM
same,"Blood Pressure Hexamethonium Rat, Blood Pressure/dose (decrease)",mean arterial pressure [3]; 100 μg/kg,Inactive
same,In vivo (ADP-Thrombocytopenia) ED50,[4],3.3 µg/kg/min
"O=C(O)CCC[C@H](F)C1=C[C@@H]2[C@@H](/C=C/[C@@H](O)C3CCCC3)[C@H](O)C[C@@H]2O1 [(5S,15S)]",IC50,[2],100 nM
same,"Blood Pressure Hexamethonium Rat, Blood Pressure/dose (decrease)",mean arterial pressure [3]; 10 μg/kg,-42 mm/Hg
same,In vivo (ADP-Thrombocytopenia) ED50,[4],2.3 µg/kg/min
"CCCC1CCC([C@H](O)/C=C/[C@@H]2[C@H]3C/C(=C/CCCC(=O)OC)O[C@H]3C[C@H]2O)C1 (stereo partly drawn) [(5Z, 13E)-(9α,11α,15S)-6,9-epoxy-11,15-dihydroxy-15-(3 propyl)cyclopentyl-16, 17, 18, 19, 20-pentanorprosta-5,13-dienoic acid methyl ester]",blood pressure lowering activity compared to a 15R derivative,blood pressure,greater blood pressure lowering activity
O=C(O)CCC/C=C1/C[C@@H]2[C@@H](/C=C/[C@H](O)C3CCCC3)[C@H](O)C[C@@H]2O1 [(15R)],IC50,[2],630 nM
same,"Blood Pressure Hexamethonium Rat, Blood Pressure/dose (decrease)",mean arterial pressure [3]; 100 μg/kg,-76 mm/Hg
O=C(O)CCC/C=C1/C[C@@H]2[C@@H](/C=C/[C@@H](O)C3CCCC3)[C@H](O)C[C@@H]2O1 [(15S)],IC50,[2],76 nM
same,"Blood Pressure Hexamethonium Rat, Blood Pressure/dose (decrease)",mean arterial pressure [3]; 0.2 μg/kg,-83 mm/Hg
"CCCCC[C@H](O)/C=C/[C@@H]1[C@H]2C/C(=C/CCCC(=O)O)O[C@H]2C[C@H]1O [PGI2, (5Z)-9-deoxy-6,9α-epoxy-Δ^5 -PGF1]",ratio of blood pressure lowering activity and platelet aggregation inhibiting activity,[1],1
